These results are taken from ChEMBL document CHEMBL1201862, “PubChem BioAssay data set” (2004).

Active and inactive are the calls of the source.

The test system of assay [1] is Vero. Briefly: cells. To be noted: Chlorocebus sabaeus. The format is functional.
For assay [2], the system named is Vero. Description: cells. To be noted: Chlorocebus sabaeus. The assay is classed as functional, cell-based.
Another assay concerns the target T1, Caspase-3 (Homo sapiens, UniProt P42574).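 Note: Dose-response selectivity test against caspase-3 for candidate inhibitors of sentrin-specific proteases (SENPs).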
T1 sequence (P42574 whole entry): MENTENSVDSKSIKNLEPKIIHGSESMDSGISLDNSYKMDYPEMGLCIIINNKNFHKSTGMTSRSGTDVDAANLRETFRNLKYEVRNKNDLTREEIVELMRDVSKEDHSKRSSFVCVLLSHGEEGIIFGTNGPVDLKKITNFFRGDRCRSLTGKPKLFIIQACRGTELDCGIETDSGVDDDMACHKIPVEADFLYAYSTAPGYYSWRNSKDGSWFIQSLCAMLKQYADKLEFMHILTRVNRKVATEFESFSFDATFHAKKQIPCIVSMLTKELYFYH
The assay is classed as functional.

Assay [3] deals with T2, Sentrin-specific protease 8 (Homo sapiens, UniProt Q96LD8).
T2 sequence (Q96LD8 whole entry): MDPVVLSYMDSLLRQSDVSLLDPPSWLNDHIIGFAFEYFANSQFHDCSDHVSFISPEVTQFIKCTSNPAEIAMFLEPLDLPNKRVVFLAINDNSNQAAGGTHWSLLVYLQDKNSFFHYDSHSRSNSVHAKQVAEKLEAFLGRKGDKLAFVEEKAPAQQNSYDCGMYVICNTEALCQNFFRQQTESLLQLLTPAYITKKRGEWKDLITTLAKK
The assay is classed as functional.

Assay [4] addresses T3, Sentrin-specific protease 6 (Homo sapiens, UniProt Q9GZR1).
T3 sequence (Q9GZR1 whole entry): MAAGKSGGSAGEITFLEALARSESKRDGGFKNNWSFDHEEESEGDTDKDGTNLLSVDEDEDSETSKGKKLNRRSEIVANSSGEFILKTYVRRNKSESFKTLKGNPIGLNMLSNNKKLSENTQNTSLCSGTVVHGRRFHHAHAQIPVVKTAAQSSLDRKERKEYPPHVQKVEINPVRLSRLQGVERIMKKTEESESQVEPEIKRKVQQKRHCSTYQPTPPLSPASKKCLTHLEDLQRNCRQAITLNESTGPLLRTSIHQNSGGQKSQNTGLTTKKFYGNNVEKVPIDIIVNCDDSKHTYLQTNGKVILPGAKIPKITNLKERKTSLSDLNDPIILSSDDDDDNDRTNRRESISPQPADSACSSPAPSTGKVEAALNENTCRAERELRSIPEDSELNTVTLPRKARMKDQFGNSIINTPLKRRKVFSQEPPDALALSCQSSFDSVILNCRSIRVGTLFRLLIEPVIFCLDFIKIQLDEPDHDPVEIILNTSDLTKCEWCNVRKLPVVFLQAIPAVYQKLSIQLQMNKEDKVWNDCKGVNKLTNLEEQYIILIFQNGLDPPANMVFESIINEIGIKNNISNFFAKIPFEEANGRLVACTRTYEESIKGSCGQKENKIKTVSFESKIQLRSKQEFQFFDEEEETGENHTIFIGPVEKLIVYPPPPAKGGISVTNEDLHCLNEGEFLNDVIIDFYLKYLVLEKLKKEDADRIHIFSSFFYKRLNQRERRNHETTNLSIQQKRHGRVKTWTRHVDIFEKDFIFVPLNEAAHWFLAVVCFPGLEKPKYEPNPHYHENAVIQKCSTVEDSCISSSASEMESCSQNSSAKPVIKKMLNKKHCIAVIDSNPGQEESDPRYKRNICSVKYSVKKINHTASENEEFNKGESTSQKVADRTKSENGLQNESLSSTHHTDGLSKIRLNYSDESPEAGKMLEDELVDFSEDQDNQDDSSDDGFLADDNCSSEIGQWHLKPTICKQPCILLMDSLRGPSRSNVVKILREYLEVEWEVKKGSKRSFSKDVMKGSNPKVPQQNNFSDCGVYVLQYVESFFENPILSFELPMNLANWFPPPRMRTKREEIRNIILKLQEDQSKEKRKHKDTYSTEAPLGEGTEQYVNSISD
The format is functional.

Assay [5] addresses T4, Sentrin-specific protease 7 (Homo sapiens, UniProt Q9BQF6).
T4 sequence (Q9BQF6 whole entry): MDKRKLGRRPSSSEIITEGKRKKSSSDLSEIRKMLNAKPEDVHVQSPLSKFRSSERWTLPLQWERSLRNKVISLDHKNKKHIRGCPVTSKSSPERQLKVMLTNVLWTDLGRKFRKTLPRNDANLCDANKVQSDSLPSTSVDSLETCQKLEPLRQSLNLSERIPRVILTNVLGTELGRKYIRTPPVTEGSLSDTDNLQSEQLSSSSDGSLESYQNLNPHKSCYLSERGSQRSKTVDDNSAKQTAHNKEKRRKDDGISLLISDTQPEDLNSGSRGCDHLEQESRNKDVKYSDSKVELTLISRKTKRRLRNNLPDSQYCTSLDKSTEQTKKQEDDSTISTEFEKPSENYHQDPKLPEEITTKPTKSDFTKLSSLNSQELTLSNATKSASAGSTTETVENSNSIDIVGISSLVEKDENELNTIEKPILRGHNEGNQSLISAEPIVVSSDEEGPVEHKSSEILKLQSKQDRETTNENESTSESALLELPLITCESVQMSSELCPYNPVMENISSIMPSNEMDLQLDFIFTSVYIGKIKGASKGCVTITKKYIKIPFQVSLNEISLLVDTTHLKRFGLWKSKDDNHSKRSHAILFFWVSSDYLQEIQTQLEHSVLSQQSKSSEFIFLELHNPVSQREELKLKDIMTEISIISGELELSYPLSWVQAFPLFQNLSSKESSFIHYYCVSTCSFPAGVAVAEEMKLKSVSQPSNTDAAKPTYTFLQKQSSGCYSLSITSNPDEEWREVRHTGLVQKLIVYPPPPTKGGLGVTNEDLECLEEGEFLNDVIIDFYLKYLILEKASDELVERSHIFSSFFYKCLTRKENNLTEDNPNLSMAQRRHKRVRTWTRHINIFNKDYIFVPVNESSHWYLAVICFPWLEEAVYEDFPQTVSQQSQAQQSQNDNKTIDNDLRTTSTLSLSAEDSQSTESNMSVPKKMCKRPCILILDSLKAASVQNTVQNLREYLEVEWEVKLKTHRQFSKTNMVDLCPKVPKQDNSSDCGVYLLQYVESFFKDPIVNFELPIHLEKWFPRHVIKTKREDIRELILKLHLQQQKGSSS
The format is functional.

Assay [6] has as its system BJ. Briefly: cells. The format is functional, cell-based. The conditions noted are these: Homo sapiens.
Assay [7] in a line: microbe, parasite or virus in culture. The format is functional. The conditions noted are these: Mycobacterium tuberculosis.
The target in another assay is T5, Protein RecA (Mycobacterium tuberculosis, UniProt P9WHJ3).
T5 sequence (P9WHJ3 whole entry): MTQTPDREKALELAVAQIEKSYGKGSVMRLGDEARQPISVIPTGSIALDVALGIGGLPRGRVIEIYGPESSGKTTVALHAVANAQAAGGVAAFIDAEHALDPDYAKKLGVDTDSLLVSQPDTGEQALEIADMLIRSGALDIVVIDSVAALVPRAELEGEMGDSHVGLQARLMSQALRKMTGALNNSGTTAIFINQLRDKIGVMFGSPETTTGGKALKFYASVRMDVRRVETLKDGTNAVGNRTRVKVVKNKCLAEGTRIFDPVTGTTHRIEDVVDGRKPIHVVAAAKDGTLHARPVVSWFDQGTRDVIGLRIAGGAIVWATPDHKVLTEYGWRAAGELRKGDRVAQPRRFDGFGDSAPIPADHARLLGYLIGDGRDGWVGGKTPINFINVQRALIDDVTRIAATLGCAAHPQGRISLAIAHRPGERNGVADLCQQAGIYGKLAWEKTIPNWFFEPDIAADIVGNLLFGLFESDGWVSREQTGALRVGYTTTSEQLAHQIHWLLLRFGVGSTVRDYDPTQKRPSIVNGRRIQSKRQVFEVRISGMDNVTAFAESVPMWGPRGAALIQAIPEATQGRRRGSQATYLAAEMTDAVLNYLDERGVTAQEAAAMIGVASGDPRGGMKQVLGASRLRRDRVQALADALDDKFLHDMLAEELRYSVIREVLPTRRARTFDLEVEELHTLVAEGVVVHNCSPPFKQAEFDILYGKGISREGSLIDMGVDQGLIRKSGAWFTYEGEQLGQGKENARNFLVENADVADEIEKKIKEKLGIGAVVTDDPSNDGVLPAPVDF
Briefly: Fluorescence Cell-Free Homogeneous Dose Retest to Identify Inhibitors of RecA-Intein Splicing Activity. [Related pubchem assays (depositor defined):AID2097, AID2223, AID489010, AID492950]. The format is functional.

The target in assay [8] is T6, Replicative DNA helicase DnaB (Mycobacterium tuberculosis, UniProt P9WMR3).
T6 sequence (P9WMR3 whole entry): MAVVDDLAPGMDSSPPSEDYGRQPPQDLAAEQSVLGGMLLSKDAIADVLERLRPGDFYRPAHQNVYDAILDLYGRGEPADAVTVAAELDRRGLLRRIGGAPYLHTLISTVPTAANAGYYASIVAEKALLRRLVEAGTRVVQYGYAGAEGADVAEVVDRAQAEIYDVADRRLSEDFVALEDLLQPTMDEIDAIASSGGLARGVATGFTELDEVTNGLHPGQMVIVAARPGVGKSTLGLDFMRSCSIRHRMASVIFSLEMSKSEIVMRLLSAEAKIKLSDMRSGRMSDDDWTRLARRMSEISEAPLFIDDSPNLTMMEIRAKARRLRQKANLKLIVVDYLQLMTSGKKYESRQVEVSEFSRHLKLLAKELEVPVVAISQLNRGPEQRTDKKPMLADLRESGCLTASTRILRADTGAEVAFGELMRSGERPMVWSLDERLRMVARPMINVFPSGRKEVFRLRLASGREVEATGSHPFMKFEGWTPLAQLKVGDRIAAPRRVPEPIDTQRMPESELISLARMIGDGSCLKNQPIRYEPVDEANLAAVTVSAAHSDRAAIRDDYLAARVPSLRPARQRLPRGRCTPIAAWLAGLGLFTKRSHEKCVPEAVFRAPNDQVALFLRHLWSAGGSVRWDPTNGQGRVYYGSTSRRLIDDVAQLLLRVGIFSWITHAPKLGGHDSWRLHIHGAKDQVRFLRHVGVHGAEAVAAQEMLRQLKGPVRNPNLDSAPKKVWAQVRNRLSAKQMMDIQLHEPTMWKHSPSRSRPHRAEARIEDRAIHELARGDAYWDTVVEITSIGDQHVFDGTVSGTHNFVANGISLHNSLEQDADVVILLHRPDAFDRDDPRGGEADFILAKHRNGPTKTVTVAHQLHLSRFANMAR
Description: DnaB intein splicing inhibitors, dose response, biochemical, cell-free fluorescence (AID 449749). The format is functional.

Assay [9] addresses T7, Microphthalmia-associated transcription factor (Homo sapiens, UniProt O75030).
T7 sequence (O75030 whole entry): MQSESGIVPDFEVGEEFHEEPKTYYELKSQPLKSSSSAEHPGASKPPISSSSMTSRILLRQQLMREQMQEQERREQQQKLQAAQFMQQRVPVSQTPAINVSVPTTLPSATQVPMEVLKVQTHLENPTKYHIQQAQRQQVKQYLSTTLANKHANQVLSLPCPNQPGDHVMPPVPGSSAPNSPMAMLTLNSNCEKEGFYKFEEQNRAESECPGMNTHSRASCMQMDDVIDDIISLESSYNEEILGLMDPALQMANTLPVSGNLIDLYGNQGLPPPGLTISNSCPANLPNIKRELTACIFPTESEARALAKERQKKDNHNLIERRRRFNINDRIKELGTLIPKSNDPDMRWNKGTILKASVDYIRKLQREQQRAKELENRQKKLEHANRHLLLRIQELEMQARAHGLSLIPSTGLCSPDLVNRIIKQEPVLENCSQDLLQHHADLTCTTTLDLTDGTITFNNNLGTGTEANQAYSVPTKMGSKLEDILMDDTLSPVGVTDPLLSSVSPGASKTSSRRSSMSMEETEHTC
Briefly: TRPM1 promoter luciferase signal decrease, dose response, MITF inhibitor project, cell-based, SK-MEL-5, cherry-picked, set 3 (AID 493073).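 Note: SK-MEL-5 melanoma cells with luciferase driven by the MITF target TRPM1 promoter.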 The format is functional.

Assay [10] can be described thus: cytotoxicity in HEK-293T cells, dose response, cytotoxicity control for TCR NF-kB inhibitor project, luminescence, T-cell screen hits (AID 489026).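 Note: cells exposed to compound about 14 hours before the viability readout.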 The format is functional, cell-based.
Assay [11] can be described thus: cytotoxicity toward DRD oncogenic fibroblasts, dose response, cell-based, non-viral oncogenic, luminescence (AID 1934). The assay is classed as functional. To be noted: Homo sapiens.
Assay [12] concerns BJ. Description: cytotoxicity toward BJ-TERT fibroblasts, dose response, cell-based, RAS-independent, luminescence (AID 1933). The format is functional. To be noted: Homo sapiens.
Assay [13] relates to BJ. Description: cytotoxicity toward BJ-TERT-LT-ST fibroblasts, dose response, cell-based, RAS-independent, luminescence (AID 1935).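 Note: BJ fibroblasts immortalized with TERT plus LT and ST oncogenes.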 The format is functional. The conditions noted are these: Homo sapiens.

Turning to `Cc1cc(N2CCN(Cc3nc(-c4ccc(Cl)cc4)oc3C)CC2)cc(C)n1`, the CC50 in the assay with Vero [1] was > 25 µM (active). For the same molecule, the IC50 (in general, the concentration that gives 50% inhibition) in the assay with Vero [2] is 23.7 µM (active).
With `COc1ccc(C(=O)Nc2cccc(C(=O)O)c2)cc1S(=O)(=O)N1CCCC1`, the IC50 on Caspase-3 is 46.9 µM (active); in assay [3] it was 26.6 µM (active); in assay [4] it was 22.1 µM (active); in assay [5], 6.06 µM (active).
For `Cc1ccc2c(c1)Oc1ccc(NC(=O)CCl)cc1C(=O)N2`, the EC50 (usually the concentration at which the effect is half-maximal) in the assay with BJ [6] is 2.88 µM (inconclusive); at Protein RecA it was 4.53 µM (active); in assay [11] it was 6.28 µM (active); with BJ [12] it was 2.99 µM (active); with BJ [13], 4.2 µM (inconclusive). For the same molecule, in assay [7], the CC50 is 2.96 µM (active). Besides, the AC50 (usually the concentration giving half of the maximal activity seen) in [8] was 15.6 µM (active); in assay [9], 10.1 µM (active). Also, the IC50 in assay [10] is 17.3 µM (active).
Take `CCCN(CCC)C1=CC(=[N+]2CCCC2)CC(C)(C)C1`: the AC50 in assay [9] is 2.02 µM (active). In assay [10], the IC50 was > 80 µM (inactive).
`COC(=O)c1[nH]c2c(c1C)C(=O)CC(c1cccc(OC)c1)C2` (stereo unspecified): the EC50 was 1.62 µM (active) with BJ [6], 0.619 µM (active) in assay [11], 0.773 µM (active) with BJ [12] and 0.665 µM (active) with BJ [13]. In addition, the IC50 in [10] is > 80 µM (inactive).
As for `Cc1ccc(C(=O)Nc2cccc3cccnc23)cc1C`, the IC50 at Caspase-3 was 15.6 µM (active); in [3], 18.8 µM (active); in [4] it was 14.5 µM (active); in [5], 3.98 µM (active).
